# Source: the supplement of paper PMC10733146
# Assays:
# Test in all cases: viability relative to DMSO control (fraction); higher = less drug effect (more viable cells)
# Details in all cases: 48 h
# [1] = system: primary AML patient cells (S037)
# In short: (§1)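 Viability was measured as CellTiter-Glo luminescence relative to the median of 16 inner DMSO wells. Primary mononuclear tumour cells, fresh or cryopreserved, were Ficoll-isolated from blood or bone marrow or taken from processed lymph node. They were seeded at 4 × 10^4 cells per well into 384-well plates holding pre-plated compounds at five concentrations, one well each, and kept in RPMI-1640 with penicillin/streptomycin, L-glutamine and human serum at 37 °C and 5% CO2 for 48 h.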
# [2] = system: primary AML patient cells (S025)
# In short: as §1
# [3] = system: primary AML patient cells (S072)
# In short: as §1
# [4] = system: primary AML patient cells (S079)
# In short: as §1
# [5] = system: primary MCL patient cells (S053)
# In short: as §1
# [6] = system: primary ALL patient cells (S048)
# In short: as §1
# [7] = system: primary AML patient cells (S017)
# In short: as §1
# [8] = system: primary AML patient cells (S056)
# In short: as §1
# [9] = system: primary AML patient cells (S012)
# In short: as §1
# [10] = system: primary AML patient cells (S019)
# In short: as §1
# [11] = system: primary CLL patient cells (S031)
# In short: as §1
# [12] = system: primary AML patient cells (S002)
# In short: as §1
# [13] = system: primary FL patient cells (S022)
# In short: as §1
# [14] = system: primary AML patient cells (S089)
# In short: as §1
# [15] = system: primary BL patient cells (S005)
# In short: as §1
# [16] = system: primary AML patient cells (S085)
# In short: as §1
# [17] = system: primary AML patient cells (S091)
# In short: as §1
# [18] = system: primary AML patient cells (S071)
# In short: as §1
# [19] = system: primary MCL patient cells (S068)
# In short: as §1
# [20] = system: primary CLL patient cells (S043)
# In short: as §1
smiles,measurement,setting,value
N#CC[C@H](C1CCCC1)n1cc(-c2ncnc3[nH]ccc23)cn1 [Ruxolitinib],viability,[1]; 0.024 µM,1.02
same,viability,[1]; 0.12 µM,0.956
same,viability,[1]; 0.6 µM,0.989
same,viability,[1]; 3 µM,0.97
same,viability,[1]; 15 µM,0.965
same,viability,[2]; 0.024 µM,0.954
same,viability,[2]; 0.12 µM,0.962
same,viability,[2]; 0.6 µM,1.04
same,viability,[2]; 3 µM,1.02
same,viability,[2]; 15 µM,1.06
same,viability,[3]; 0.024 µM,1.04
same,viability,[3]; 0.12 µM,0.925
same,viability,[3]; 0.6 µM,0.873
same,viability,[3]; 3 µM,0.913
same,viability,[3]; 15 µM,0.883
same,viability,[4]; 0.024 µM,0.979
same,viability,[4]; 0.12 µM,0.845
same,viability,[4]; 0.6 µM,0.808
same,viability,[4]; 3 µM,0.774
same,viability,[4]; 15 µM,0.724
same,viability,[5]; 0.024 µM,1.03
same,viability,[5]; 0.12 µM,0.928
same,viability,[5]; 0.6 µM,1.02
same,viability,[5]; 3 µM,1.03
same,viability,[5]; 15 µM,0.831
same,viability,[6]; 0.024 µM,1.03
same,viability,[6]; 0.12 µM,0.945
same,viability,[6]; 0.6 µM,0.963
same,viability,[6]; 3 µM,0.988
same,viability,[6]; 15 µM,0.852
same,viability,[7]; 0.024 µM,1.05
same,viability,[7]; 0.12 µM,1.03
same,viability,[7]; 0.6 µM,1.09
same,viability,[7]; 3 µM,1
same,viability,[7]; 15 µM,0.907
same,viability,[8]; 0.024 µM,0.954
same,viability,[8]; 0.12 µM,0.894
same,viability,[8]; 0.6 µM,0.814
same,viability,[8]; 3 µM,0.891
same,viability,[8]; 15 µM,0.69
same,viability,[9]; 0.024 µM,0.973
same,viability,[9]; 0.12 µM,0.973
same,viability,[9]; 0.6 µM,1.03
same,viability,[9]; 3 µM,0.951
same,viability,[9]; 15 µM,0.846
same,viability,[10]; 0.024 µM,1.09
same,viability,[10]; 0.12 µM,0.873
same,viability,[10]; 0.6 µM,1.03
same,viability,[10]; 3 µM,0.849
same,viability,[10]; 15 µM,0.716
same,viability,[11]; 0.024 µM,1.06
same,viability,[11]; 0.12 µM,1
same,viability,[11]; 0.6 µM,1.04
same,viability,[11]; 3 µM,0.896
same,viability,[11]; 15 µM,0.689
same,viability,[12]; 0.024 µM,0.982
same,viability,[12]; 0.12 µM,0.788
same,viability,[12]; 0.6 µM,0.851
same,viability,[12]; 3 µM,0.707
same,viability,[12]; 15 µM,0.646
same,viability,[13]; 0.024 µM,0.968
same,viability,[13]; 0.12 µM,0.882
same,viability,[13]; 0.6 µM,1.05
same,viability,[13]; 3 µM,0.908
same,viability,[13]; 15 µM,0.893
same,viability,[14]; 0.024 µM,0.658
same,viability,[14]; 0.12 µM,0.804
same,viability,[14]; 0.6 µM,0.603
same,viability,[14]; 3 µM,0.686
same,viability,[14]; 15 µM,0.704
same,viability,[15]; 0.024 µM,1.01
same,viability,[15]; 0.12 µM,1.18
same,viability,[15]; 0.6 µM,0.974
same,viability,[15]; 3 µM,1.15
same,viability,[15]; 15 µM,1.03
same,viability,[16]; 0.024 µM,1.42
same,viability,[16]; 0.12 µM,0.921
same,viability,[16]; 0.6 µM,0.861
same,viability,[16]; 3 µM,0.806
same,viability,[16]; 15 µM,0.651
same,viability,[17]; 0.024 µM,0.915
same,viability,[17]; 0.12 µM,1.09
same,viability,[17]; 0.6 µM,0.889
same,viability,[17]; 3 µM,1.12
same,viability,[17]; 15 µM,1.28
same,viability,[18]; 0.024 µM,1.01
same,viability,[18]; 0.12 µM,0.988
same,viability,[18]; 0.6 µM,0.956
same,viability,[18]; 3 µM,0.944
same,viability,[18]; 15 µM,0.744
same,viability,[19]; 0.024 µM,0.978
same,viability,[19]; 0.12 µM,0.987
same,viability,[19]; 0.6 µM,0.989
same,viability,[19]; 3 µM,1.05
same,viability,[19]; 15 µM,0.947
same,viability,[20]; 0.024 µM,0.915
same,viability,[20]; 0.12 µM,1.05
same,viability,[20]; 0.6 µM,0.938
same,viability,[20]; 3 µM,1.05
same,viability,[20]; 15 µM,0.966
